In brackets after ≈: the same amount, converted by molar mass. Several values for one entry are separate records, joined by “and”; a condition that tells them apart may be missing. Identical values can stand only once.
Columns and labels:
MRSA (ATCC 33591) = experiment: Rabbit ischemic ear wound model of infection by MRSA, topical treatment; format: in vivo, New Zealand White rabbits; conditions: for % wound closure / wound size (mean) / Wound size (mm2): Fig 2a; for Wound size (mm2): individual wounds
Protocol: New Zealand White rabbits from Charles River were employed for this study. Both male and female rabbits were used; sample size prevented disaggregation of data by sex. Investigators were blinded to group allocation, data collection, and data analysis. Food and water were given ad libidum and animals were acclimatized for 7 days with photoperiods of alternating 12 h light and dark at 21 °C in relative humidity of 40–50%. The formulation for delivery of DNM compounds was Glaxal base (WellSpring Pharmaceutical Canada Corp., Oakville, Canada). Formulation was performed by dissolving compound in Glaxal base to give final concentrations of 1% or 2% DNM compound (w/v). The analgesic (Buprenex 0.02 mg/kg sc) and anesthesia (isoflurane (0.5–5% with oxygen carrier 0.5–2 L/min) were used as required during procedures. An ischemia wound healing model was conducted surgically. Each wound was inoculated with 50 μl of 2 × 10^7 CFU/mL MRSA (ATCC #33591) and dressed. After 1 day, wounds were treated with either 50 μl control cream containing vehicle or 50 μl cream containing compound daily. Wounds were assessed and observations recorded using the Draize scoring system. Digital photographs of each wound were obtained and documented.

S. epidermidis (MRSE) = experiment: MIC, clinical and laboratory strains; format: cell-based
Protocol: (§1) The medium employed for the assay was Mueller Hinton II Broth (MHB II; Becton-Dickinson, Sparks, MD, USA). Agar plates used for the organisms were trypticase soy agar plus 5% sheep blood (BD; Sparks, MD, USA). MIC assay plates were prepared using the CLSI broth microdilution procedure. Automated liquid handlers (Multidrop 384, Biomek 2000 and Biomek FX) were used to conduct serial dilutions and liquid transfers. A standardized inoculum of each organism was prepared per CLSI methods. Suspensions were prepared to equal a 0.5 McFarland standard, followed by a 1:20 dilution in test media. The inocula were dispensed into sterile reservoirs divided by length (Beckman Colter) and the Biomek 2000 was used to inoculate the plates. Daughter plates were placed on the Biomek 2000 work surface in reverse orientation so that inoculation took place from low to high drug concentration. The Biomek 2000 delivered 10 μL of the diluted suspension into each well. These inoculations yielded a final cell concentration in the daughter plates of ~5 × 10^5 colony-forming units/mL in each well. The wells of the daughter plates ultimately contained 185 μL of broth, 5 μL of drug solution, and 10 μL of bacterial inoculum. Plates were covered with a sterile lid on the top plate, placed in plastic bags, and incubated at 35 °C for ~18 h. The microplates were viewed from the bottom using a plate viewer and the MIC was read. The MIC was recorded as the lowest concentration of drug that inhibited visible growth of the organism.

S. epidermidis (MSSE) = experiment: MIC, clinical and laboratory strains; format: cell-based
Protocol: as §1

S. aureus (MRSA) = experiment: MIC, clinical and laboratory strains; format: cell-based
Protocol: as §1

CC(C)c1cc(Cl)ccc1-c1cc(-c2nnn[nH]2)c(-c2ccc(Cl)cc2C(C)C)s1 [DNM0547]
% wound closure (MRSA (ATCC 33591); Day 1): 0% | wound size (mean) (MRSA (ATCC 33591); Day 1): 30.44 mm2 | % wound closure (MRSA (ATCC 33591); Day 3): 2.62% | wound size (mean) (MRSA (ATCC 33591); Day 3): 29.642 mm2 | % wound closure (MRSA (ATCC 33591); Day 6): 5.42% | wound size (mean) (MRSA (ATCC 33591); Day 6): 28.797 mm2 | % wound closure (MRSA (ATCC 33591); Day 9): 32.45% | wound size (mean) (MRSA (ATCC 33591); Day 9): 20.563 mm2 | % wound closure (MRSA (ATCC 33591); Day 12): 53.18% | wound size (mean) (MRSA (ATCC 33591); Day 12): 14.254 mm2 | % wound closure (MRSA (ATCC 33591); Day 15): 73.94% | wound size (mean) (MRSA (ATCC 33591); Day 15): 7.93 mm2 | % wound closure (MRSA (ATCC 33591); Day 18): 87.25% | wound size (mean) (MRSA (ATCC 33591); Day 18): 3.88 mm2 | % wound closure (MRSA (ATCC 33591); Day 21): 97.93% | wound size (mean) (MRSA (ATCC 33591); Day 21): 0.636 mm2 | Wound size (mm2) (MRSA (ATCC 33591); Day 1): 29.51 mm2 and 29.83 mm2 and 28.32 mm2 and 27.53 mm2 and 32.52 mm2 and 34.03 mm2 and 26.69 mm2 and 25.2 mm2 and 36.13 mm2 and 34.64 mm2 | Wound size (mm2) (MRSA (ATCC 33591); Day 3): 31.06 mm2 and 29.08 mm2 and 27.25 mm2 and 24.3 mm2 and 31.24 mm2 and 33.16 mm2 and 27.53 mm2 and 25.7 mm2 and 33.48 mm2 and 33.62 mm2 | Wound size (mm2) (MRSA (ATCC 33591); Day 6): 28.85 mm2 and 31.18 mm2 and 26.33 mm2 and 24.01 mm2 and 30.73 mm2 and 32.69 mm2 and 26.4 mm2 and 21.93 mm2 and 33.19 mm2 and 32.66 mm2 | Wound size (mm2) (MRSA (ATCC 33591); Day 9): 23.09 mm2 and 21.11 mm2 and 22.61 mm2 and 20.99 mm2 and 19.44 mm2 | Wound size (mm2) (MRSA (ATCC 33591); Day 15): 10.17 mm2 and 8.72 mm2 and 14.95 mm2 and 20.1 mm2 and 0.9 mm2 and 0.08 mm2 and 1.02 mm2 and 4 mm2 and 10.8 mm2 and 8.56 mm2 | Wound size (mm2) (MRSA (ATCC 33591); Day 18): 8.29 mm2 and 0.93 mm2 and 7.78 mm2 and 10.81 mm2 and 0.41 mm2 and 0 mm2 and 0.53 mm2 and 2.2 mm2 and 3.09 mm2 and 4.76 mm2 | Wound size (mm2) (MRSA (ATCC 33591); Day 21): 0 mm2 (8×) and 5.12 mm2 and 1.24 mm2 | reduction in bacterial survival as compared to vehicle control (MRSA (ATCC 33591); quantitative microbiology at day 14, topical): > 99% | bacteria in the wound (CFUs per gram of tissue at end of study) (MRSA (ATCC 33591); topical 2%): effectively eliminated bacteria from the wound | day of complete wound closure (MRSA (ATCC 33591); topical 2%): ≤ 21 days | wound closure (MRSA (ATCC 33591); topical for 14 days, versus vehicle control): significantly improved wound closure | MIC (S. epidermidis (MRSE); S. epidermidis (MRSE) 3679): 2 µg/mL (≈ 4.37 µM) | MIC (S. epidermidis (MRSE); S. epidermidis (MRSE) 3680): 2 µg/mL (≈ 4.37 µM) | MIC (S. epidermidis (MRSE); S. epidermidis (MRSE) 3681): 1 µg/mL (≈ 2.19 µM) | MIC (S. epidermidis (MRSE); S. epidermidis (MRSE) 3683): 2 µg/mL (≈ 4.37 µM) | MIC (S. epidermidis (MRSE); S. epidermidis (MRSE) 3745): 8 µg/mL (≈ 17.5 µM) | MIC (S. epidermidis (MRSE); S. epidermidis (MRSE) 3746): 2 µg/mL (≈ 4.37 µM) | MIC (S. epidermidis (MRSE); S. epidermidis (MRSE) 3747): 2 µg/mL (≈ 4.37 µM) | MIC (S. epidermidis (MSSE); S. epidermidis (MSSE) 3234): 4 µg/mL (≈ 8.74 µM) | MIC (S. epidermidis (MSSE); S. epidermidis (MSSE) 3602): 2 µg/mL (≈ 4.37 µM) | MIC (S. epidermidis (MSSE); S. epidermidis (MSSE) 3609): 4 µg/mL (≈ 8.74 µM) | MIC (S. epidermidis (MSSE); S. epidermidis (MSSE) 3617): 1 µg/mL (≈ 2.19 µM) | MIC (S. epidermidis (MSSE); S. epidermidis (MSSE) 3620): 2 µg/mL (≈ 4.37 µM) | MIC (S. epidermidis (MSSE); S. epidermidis (MSSE) 3621): 1 µg/mL (≈ 2.19 µM) | MIC (S. aureus (MRSA); S. aureus (MRSA) 2167): 1 µg/mL (≈ 2.19 µM) | MIC (S. aureus (MRSA); S. aureus (MRSA) 2168): 1 µg/mL (≈ 2.19 µM) | MIC (S. aureus (MRSA); S. aureus (MRSA) 2169): 2 µg/mL (≈ 4.37 µM) | MIC (S. aureus (MRSA); S. aureus (MRSA) 2170): 1 µg/mL (≈ 2.19 µM) | MIC (S. aureus (MRSA); S. aureus (MRSA) 2171): 1 µg/mL (≈ 2.19 µM) | MIC (S. aureus (MRSA); S. aureus (MRSA) 2293): 2 µg/mL (≈ 4.37 µM) | MIC (S. aureus (MRSA); S. aureus (MRSA) 2294): 1 µg/mL (≈ 2.19 µM) | MIC (S. aureus (MRSA); S. aureus (MRSA) 2295): 1 µg/mL (≈ 2.19 µM)
